Where two headings read alike, the source gives them in different places.
Target: T1, human TRPC5 (Homo sapiens, UniProt Q9UL62)
T1 construct: expressed in transfected cells; host or cells: HEK 293
T1 sequence (Q9UL62 1-973): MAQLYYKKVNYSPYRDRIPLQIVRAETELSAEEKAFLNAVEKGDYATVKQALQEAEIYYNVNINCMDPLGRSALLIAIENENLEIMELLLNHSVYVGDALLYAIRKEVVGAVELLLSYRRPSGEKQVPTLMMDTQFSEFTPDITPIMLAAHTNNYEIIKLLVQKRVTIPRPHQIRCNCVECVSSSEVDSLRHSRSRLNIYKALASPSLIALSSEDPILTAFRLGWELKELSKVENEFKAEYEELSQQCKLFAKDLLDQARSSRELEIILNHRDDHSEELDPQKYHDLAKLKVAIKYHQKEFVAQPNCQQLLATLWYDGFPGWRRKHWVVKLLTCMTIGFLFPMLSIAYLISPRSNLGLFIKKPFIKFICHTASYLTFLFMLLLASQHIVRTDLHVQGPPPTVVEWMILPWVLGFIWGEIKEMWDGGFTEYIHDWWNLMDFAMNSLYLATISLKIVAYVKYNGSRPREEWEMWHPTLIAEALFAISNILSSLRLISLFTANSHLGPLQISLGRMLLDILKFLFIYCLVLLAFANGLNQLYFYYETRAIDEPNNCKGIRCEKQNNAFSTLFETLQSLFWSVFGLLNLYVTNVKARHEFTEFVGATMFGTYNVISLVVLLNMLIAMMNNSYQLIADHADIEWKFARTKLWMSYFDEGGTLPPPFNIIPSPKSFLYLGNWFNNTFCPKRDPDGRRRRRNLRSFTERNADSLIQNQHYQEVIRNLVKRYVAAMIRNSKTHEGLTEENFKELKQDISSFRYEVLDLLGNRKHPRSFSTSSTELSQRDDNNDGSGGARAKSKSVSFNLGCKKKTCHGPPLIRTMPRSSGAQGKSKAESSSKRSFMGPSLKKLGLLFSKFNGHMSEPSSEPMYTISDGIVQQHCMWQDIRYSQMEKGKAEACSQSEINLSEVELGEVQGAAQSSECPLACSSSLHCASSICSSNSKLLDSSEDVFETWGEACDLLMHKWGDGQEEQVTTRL
Assay: Automated patch clamp assay (QPatch), current block after stimulation with rosiglitazone
Format: cell-based
Conditions: HEK293 cells overexpressing TRPC5, whole cell automated patch
Procedure: HEK 293 cells expressing human TRPC5 were harvested, re-suspended in serum free medium, and added to the automated platform and used within 2-3 hours. Internal and external physiological solutions were freshly prepared prior to the assay. The external solution contained: 145 mM NaCl, 4 mM KCl, 2 mM CaCl2), 1 mM MgCl2, 10 mM HEPES, 10 mM glucose, pH 7.4 with NaOH and 300 mOsm/L. The internal solution contained 120 mM L-aspartic acid, 120 mM CsOH.H2O, 20 mM CsCl, 2 mM MgCl2, 8.8 mM CaCl2), 10 mM EGTA, 10 mM HEPES, 10 mM Glucose, 0.1 mM GTP and 2 mM Na2ATP; pH 7.2 with CsOH and 290 mOsm/L. The free internal Ca2+ concentration was buffered to 1 μM.
The automated electrophysiological platform QPatch 16 from Sophion (Denmark) was used to carry out the compounds profiling. The series resistance and quality of seals were continuously monitored during the experiments. Data was analyzed using Sophion QPatch assay software 5.6 (Odense). IC50 values were calculated using a least squares regression algorithm (Hill equation).
To monitor the ion currents, a voltage ramp from −100 mV to +100 mV, over 300 ms, was applied every 10 seconds, from a holding potential of −60 mV.
After recording for a minimum of 60 seconds control period, Rosiglitazone (30 uM), was applied to activate the channel.

[1] = 80 mV, 1-substituted 7-azaindoles, read-out: TRPC5 IC50 80 mV
[2] = 100 mV, 1-substituted 7-azaindoles, read-out: TRPC5 IC50 100 mV
[3] = 100 mV, 7-substituted 7-azaindoles, read-out: TRPC5 IC50 100 mV

Compound	IC50 [1]	IC50 [2]	IC50 [3]
CC(C)(C)c1cc2cccnc2n1CC1CCN(S(C)(=O)=O)CC1	> 30 µM	–	–
CC(C)(C)c1cc2cccnc2n1Cc1ccncc1	> 30 µM	> 30 µM	–
CC(C)(C)c1cc2cccn(Cc3cccnc3)c-2n1 [drawing 134]	–	–	14.4 µM
CC(C)(C)c1cc2cccnc2n1C[C@H]1CC[C@H](C)CC1 [drawing 112]	> 30 µM	–	–
CC(C)(C)c1cc2cccnc2n1C[C@H]1CC[C@H](C)CC1 [drawing 113]	–	> 30 µM	–
CC(C)(C)c1cc2cccnc2n1Cc1ccc(Cl)cc1C#N	> 30 µM	–	–
Cc1nn(C)cc1Cn1c(C(C)(C)C)cc2cccnc21	> 30 µM	> 30 µM	–
Clc1ccc(Cn2c(CN3CCCC3)cc3cccnc32)cc1	23.6 µM	25.2 µM	–
Cc1noc(C)c1Cn1cccc2cc(C(C)(C)C)nc1-2	–	–	15.6 µM
Cn1cc(Cn2c(C(C)(C)C)cc3cccnc32)c(C(F)(F)F)n1	> 30 µM	> 30 µM	–
CC(C)(C)c1cc2cccnc2n1Cc1cncc(F)c1	> 30 µM	> 30 µM	–
C[C@H](c1ccccc1)n1c(C(C)(C)C)cc2cccnc21	> 30 µM	> 30 µM	–
CN(C)Cc1cc2cccnc2n1Cc1ccccc1	18.3 µM	21.6 µM	–
Cn1cc(Cn2cccc3cc(C(C)(C)C)nc2-3)cn1	–	–	9.79 µM
Cn1nc(C(F)(F)F)cc1Cn1cccc2cc(C(C)(C)C)nc1-2	–	–	12.2 µM
COc1ccc(Cn2cccc3cc(C(C)(C)C)nc2-3)cc1	–	–	5.47 µM
CC(C)(O)c1cc2cccnc2n1Cc1ccccc1 [drawing 81]	–	> 30 µM	–
Cc1cc2cccnc2n1Cc1ccccc1	> 30 µM	–	–
CC(C)(C)c1cc2cccn(Cc3ccc(Cl)cc3)c-2n1 [drawing 127]	–	–	8.1 µM
CC(C)(C)c1cc2cccn(Cc3ccc(Cl)cc3)c-2n1 [drawing 125]	–	–	6.02 µM
CC(C)(C)c1cc2ccc(OCCCO)nc2n1Cc1ccccc1	> 30 µM	–	–
Cc1ccc2cc(C(C)(C)C)n(Cc3ccccc3)c2n1	> 30 µM	–	–
COc1ccc(Cn2c(C(C)(C)C)cc3cccnc32)cc1	> 30 µM	> 30 µM	–
CC(c1ccccc1)n1c(C(C)(C)C)cc2cccnc21 (stereo not drawn)	> 30 µM	–	–
c1ccc(Cn2c(CN3CCCC3)cc3cccnc32)cc1	17 µM	16.6 µM	–

Compound	IC50 [1]	IC50 [2]	IC50 [3]
CC(C)(C)c1cc2cccnc2n1Cc1cccnc1	> 30 µM	> 30 µM	–
OCCc1cc2cccnc2n1Cc1ccccc1	> 30 µM	> 30 µM	–
OCc1cc2cccnc2n1Cc1ccccc1	> 30 µM	> 30 µM	–
CC(C)(C)c1cc2cccnc2n1CC1CCNCC1	> 30 µM	–	–
Cn1cc(Cn2c(C(C)(C)C)cc3cccnc32)cn1	> 30 µM	> 30 µM	–
CC(C)(C)c1cc2cccnc2n1CC1CCOCC1	> 30 µM	–	–
Cc1nn(C)cc1Cn1cccc2cc(C(C)(C)C)nc1-2	–	–	17.6 µM
CN(C)CCc1cc2cccnc2n1Cc1ccccc1	> 30 µM	> 30 µM	–
COc1cc(Cl)ccc1Cn1c(C(C)(C)C)cc2cccnc21	> 30 µM	–	–
CC(C)Cc1cc2cccnc2n1Cc1ccccc1 [drawing 73]	–	> 30 µM	–
CC(C)(C)c1cc2cc(OCCCO)cnc2n1Cc1ccccc1	> 30 µM	> 30 µM	–
Cc1ncc(Cn2c(C(C)(C)C)cc3cccnc32)cn1	> 30 µM	–	–
COC(C)(C)c1cc2cccnc2n1Cc1ccccc1	> 30 µM	> 30 µM	–
CC(C)(C)c1cc2cccnc2n1Cc1ccc(Cl)cn1	> 30 µM	–	–
Cc1ccnc2c1cc(C(C)(C)C)n2Cc1ccccc1	> 30 µM	–	–
CC(C)(O)c1cc2cccnc2n1Cc1ccccc1 [drawing 80]	> 30 µM	–	–
CC(C)(C)c1cc2cccnc2n1CC1CCN(Cc2ccccc2)CC1	> 30 µM	–	–
COc1cccc(Cn2c(C(C)(C)C)cc3cccnc32)c1	> 30 µM	> 30 µM	–
Cn1cc(Cn2cccc3cc(C(C)(C)C)nc2-3)c(C(F)(F)F)n1	–	–	10.4 µM
CC(C)Cc1cc2cccnc2n1Cc1ccccc1 [drawing 72]	> 30 µM	–	–
CC(C)(C)c1cc2cccn(Cc3cccnc3)c-2n1 [drawing 133]	–	–	14 µM
Cc1noc(C)c1Cn1c(C(C)(C)C)cc2cccnc21	> 30 µM	> 30 µM	–
CN1CCC(Cn2c(C(C)(C)C)cc3cccnc32)CC1	> 30 µM	–	–
CC(C)(C)c1cc2cccnc2n1CCCc1ccccc1	> 30 µM	–	–
Cc1cc2cccnc2n1Cc1ccc(Cl)cc1	> 30 µM	–	–

Compound	IC50 [1]	IC50 [2]	IC50 [3]
CC(C)(C)Cc1cc2cccnc2n1Cc1ccccc1	> 30 µM	> 30 µM	–
CC(C)(C)c1cc2cccnc2n1CCc1ccccc1	> 30 µM	–	–
COCCc1cc2cccnc2n1Cc1ccccc1	> 30 µM	> 30 µM	–
CC(C)(C)c1cc2cccnc2n1CCOc1ccccc1	> 30 µM	–	–
CC(C)(C)c1cc2cccn(C[C@H]3CC[C@H](C)CC3)c-2n1 [drawing 137]	–	–	22.2 µM
CC(C)(C)c1cc2cccn(C[C@H]3CC[C@H](C)CC3)c-2n1 [drawing 138]	–	–	24.5 µM
CC(C)(C)c1cc2cccnc2n1CC1CCCCC1	> 30 µM	–	–
CC(C)(C)c1cc2cccnc2n1Cc1ccccc1 [drawing 65]	7.07 µM	–	–
CC(C)(C)c1cc2ccc(OCCO)nc2n1Cc1ccccc1	> 30 µM	–	–
CC(C)(C)c1cc2cccn(Cc3ccncc3)c-2n1	–	–	> 30 µM
COC(C)(C)Cc1cc2cccnc2n1Cc1ccccc1	13.8 µM	8.52 µM	–
CC(C)(O)Cc1cc2cccnc2n1Cc1ccccc1	> 30 µM	> 30 µM	–
COc1cccc(Cn2cccc3cc(C(C)(C)C)nc2-3)c1 [drawing 130]	–	–	10.2 µM
CC(C)(C)c1cc2c(OCCCO)ccnc2n1Cc1ccccc1	> 30 µM	> 30 µM	–
COc1cccc(Cn2cccc3cc(C(C)(C)C)nc2-3)c1 [drawing 128]	–	–	8.57 µM
CC(C)(C)c1cc2cccnc2n1Cc1ccccc1 [drawing 63]	3.51 µM	–	–
Cn1nc(C(F)(F)F)cc1Cn1c(C(C)(C)C)cc2cccnc21	19.6 µM	19.1 µM	–
CC(C)(C)c1cc2cccn(Cc3cncc(F)c3)c-2n1	–	–	7.64 µM
CCN(CC)Cc1cc2cccnc2n1Cc1ccccc1	6.24 µM	4.19 µM	–
CC(C)(C)c1cc2cccnc2n1Cc1ccc(Cl)cc1	> 30 µM	–	–
Cc1ccc2cc(C(C)(C)C)n(C(=O)c3ccccc3)c2n1	> 30 µM	–	–
C[C@@H](c1ccccc1)n1c(C(C)(C)C)cc2cccnc21	> 30 µM	> 30 µM	–
CC(=O)N1CCC(Cn2c(C(C)(C)C)cc3cccnc32)CC1	> 30 µM	–	–
